For assay [1], the system named is pool of 4 yeast species (Candida tropicalis DCS 604, Zygosaccharomyces bailii DCS 1167 and DCS 1172, Pichia spp DCS 1175). Kind of assay: Salsa sauce fresh challenge study, yeast count on YGC agar. It is filed as cell-based. Conditions: Salsa sauce 4° C., FP1000-D1 1%, FP1000-D2 1%, MG200 1%, Potassium Sorbate 0.1%. From the text: Samples of the Salsa sauce (formula in table 17) with and without the experimental blend were produced. […] It needs to be mentioned that the Salsa sauce was not pasteurized.
Each batch was split (scheme table 15) in probes of 90 gram and placed in sterile jars. 21 probes of each batch were inoculated with the desired level of yeast and 5 probes of each batch were inoculated with mould spores, respectively at a targeted inoculation rate of 300 to 800 CFU/g.
(§1) The viscous products were thoroughly mixed (2 minutes) within 10 minutes of inoculation to ensure that the inoculum was evenly distributed throughout the product. One sample remained un-inoculated and was used as negative control to monitor the native contamination flora. All samples were incubated in the dark at chilled temperature (4° C.) and assayed for yeast, plated on an appropriate yeast medium, until confirmed failure (≧1.0E+06 CFU/g) or until visible mould growth, respectively. In parallel, the growth of lactic acid bacteria and total cell count were monitored on MRS and PCA in all the batches and the non-inoculated blind, respectively.
In total 8 strains, available from Danisco's Culture Collection (DCS) (Danisco A/S, Brabrand, Denmark) were employed as 1 yeast and 1 mould pool in the respective Salsa sauce. Originally, they were isolated e.g. from spoiled ketchup, mayonnaise. Salsa dressing or obtained from official culture collections such as DMSZ.
(§2) Before each experiment, a stock culture of each yeast, maintained at −86° C. in suitable broth containing glycerol 50% (v/v), was propagated through two consecutive growth cycles in suitable media (YGC-agar (VWR) pH 5.1+0.2; YM Broth (Becton, Dickinson and Company) at pH 6.0±0.2 at and temperature (25° C.). The overnight cultures are diluted in saline solution to obtain working cultures. A cocktail of the yeasts was generated by adding equal cell counts of each culture into a sterile container and mixed appropriately. The yeast cocktail was diluted and inoculated into the product in order to achieve the final desired concentration. Pool counts were verified via plate count.
The Salsa sauces were assayed at time zero, day 3, day 7, day 14 and were plated bi-weekly thereafter until day 92. CFU/g was detected for 3 samples from each batch inoculated with yeast. Before each sampling (closed jar), the sample was thoroughly mixed, 10 gram sample were aseptically pulled from each jar and diluted with peptone water. Each sample was stomached (1 min, normal setting) plated in duplicate onto YGC agar (VWR) and MRS (VWR), and incubated at 25° C. for 5 days and 37° C. for 3 days, respectively.

Assay [2] has the same test system. Nature of the assay: BBQ sauce challenge study, yeast count on YGC agar. It is filed as cell-based. Conditions: for Cell counts on YGC-agar (yeast growth): BBQ sauce 20° C., Potassium Sorbate 0.1%. As for the experimental part:
Samples of the BBQ sauce (formula in table 9) with and without the experimental blend were produced in the Danisco Culinary Application Laboratory, Brabrand.
Each batch was split (scheme table 8) in probes of 90 gram and placed in sterile jars. 42 probes of each batch were inoculated with the desired level of yeast and 5 probes of each batch were inoculated with mould spores, respectively at a targeted inoculation rate of 500 to 1000 CFU/g.
as §1, with “incubated” for “incubated in the dark”, “ambient” for “chilled”, “(20°” for “(4°”
In total 8 strains, from available from Danisco's Culture Collection (DCS) (Danisco A/S, Brabrand, Denmark) were employed as one yeast and one mould pool in the respective BBQ sauce. Originally, they were isolated e.g. from spoiled ketchup, mayonnaise. Salsa dressing or obtained from official culture collections such as DMSZ.
as §2, with “company)” for “Company)”
The BBQ sauces were assayed at time zero, day 2, day 5, day 12, weekly until week 10 (day 68) and bi-weekly thereafter until week 19 (day 131). CFU/g was detected for 3 samples from each batch inoculated with yeast. Before each sampling (closed jar), the sample was thoroughly mixed. 10 gram sample were aseptically pulled from each jar and diluted with peptone water. Each sample was stomached (1 min, normal setting) plated in duplicate onto YGC agar (VWR) and MRS (VWR), and incubated at 25° C. for 5 days and 37° C. for 3 days, respectively.

Results on one compound are retold here after patent US20130287918A1, “MICROBICIDAL COMPOSITION” (DUPONT NUTRITION DIOSCIENCES APS, priority 2010, published 2013).

Take `C/C=C/C=C/C(=O)[O-].[K+]` [Potassium Sorbate, potassium sorbate]: the “Cell counts on YGC-agar (yeast growth)” value in assay [1] (day 0) amounted to 4.75E+02 CFU/g; in assay [1] (day 2), 2.50E+02 CFU/g; in assay [1] (day 5), 1.00E+02 CFU/g; in assay [1] (day 7) it was 6.80E+01 CFU/g; in assay [1] (day 14), 4.80E+01 CFU/g; in assay [1] (day 28), 1.45E+02 CFU/g. The “Cell counts on YGC-agar (yeast growth)” value amounted to 3.30E+01 CFU/g in assay [1] (day 41); 3.20E+01 CFU/g in assay [1] (day 55); 3.30E+01 CFU/g in assay [1] (day 93); 6.07E+02 CFU/g in assay [2] (day 0, YM10 1%, MG200 1%, Competitor product 1.25%); 1.47E+02 CFU/g in assay [2] (day 2, YM10 1%, MG200 1%, Competitor product 1.25%); 2.50E+01 CFU/g in assay [2] (day 5, YM10 1%, MG200 1%, Competitor product 1.25%). Further, the “Cell counts on YGC-agar (yeast growth)” value in assay [2] (day 12, YM10 1%, MG200 1%, Competitor product 1.25%) was 1.00E+00 CFU/g; in assay [2] (day 19, YM10 1%, MG200 1%, Competitor product 1.25%), 1.00E+00 CFU/g; in assay [2] (day 26, YM10 1%, MG200 1%, Competitor product 1.25%), 1.00E+00 CFU/g; in assay [2] (day 41, YM10 1%, MG200 1%, Competitor product 1.25%) it was 1.00E+00 CFU/g; in assay [2] (day 49), 1.00E+00 CFU/g; in assay [2] (day 55) it was 1.00E+00 CFU/g. Moreover, the “Cell counts on YGC-agar (yeast growth)” value in assay [2] (day 68) is 1.00E+00 CFU/g; in assay [2] (day 82), 1.00E+00 CFU/g; in assay [2] (day 104), 1.00E+00 CFU/g; in assay [2] (day 117) it was 1.00E+00 CFU/g; in assay [2] (day 131), 2.50E+01 CFU/g. Also, the “initial reduction of the inoculated cell load” value in assay [2] (BBQ sauce, YM10 1% and 0.5%, potassium sorbate) turned out to be 3 log.
